# Assay results taken from publication PMC6212553, “Baicalein Enhances the Oral Bioavailability and Hepatoprotective Effects of Silybin Through the Inhibition of Efflux Transporters BCRP and MRP2” (Frontiers in Pharmacology, 2018).
# Assays:
# [1] = design: method as in Pradhan and Girish, 2006; conditions: doses <10 g/d; ref Pradhan and Girish, 2006; cited from earlier work
# [2] = tested on: CCl4-induced liver injury model; assay: CCl4-induced acute liver injury in rats; format: in vivo, SD rats; design: Nerosis (histologic score, liver H&E) / Haemorrhage (histologic score, liver H&E) / Inflammation (histologic score, liver H&E) / Steatosis (histologic score, liver H&E): scale not given here
# Protocol: Male SD rats were randomly divided into seven groups: […] (2) Group II, given blank vehicle p.o. for 7 days; (3) Group III, treatment with silybin (100 mg/kg bodyweight, p.o.) for 7 days; […] After 24 h of CCl4 treatment, all rats were sacrificed under ether anesthesia. Blood samples were collected from the abdominal aorta for biochemical estimations. The liver was immediately removed and weighed with a large portion of the liver frozen in liquid nitrogen. The pathological liver changes were examined by hematoxylin and eosin (H&E) staining, which was performed by a pathologist who was blinded to this study. The serum levels of ALT, AST, AKP, and SOD as well as the cytokines TNF- α, IL-6, and IL-1β were detected by the assay kit, according to the manufacturer’s instructions.
# [3] = design: method as in Wen et al., 2008; conditions: after oral administration; ref Wen et al., 2008; cited from earlier work
# [4] = Bidirectional transport of silybin across Caco-2 cell monolayers; format: in vitro ADME, Human; conditions: human; Caco-2, silybin 2.5, 5 and 10 μM, with baicalein 5 μM
# Protocol: Human colon epithelial cell line (Caco-2) was purchased from American Type Culture Collection (Manassas, VA, United States) and frozen at -80°C. Wild type MDCK II, MDR1-MDCK II, BCRP-MDCK II, and MRP2-MDCK II cells were kindly supplied by the Netherlands Cancer Institute (Amsterdam, Netherlands). Transport study was carried out with Caco-2 cells, and MDCK II cells were transfected using a previously established method with slight modifications ([Yuan et al., 2017]). The Caco-2 cells were cultured at 37°C/5% CO2 in Dulbecco's modified Eagle's medium (DMEM) supplemented with 10% fetal bovine serum, 1% nonessential amino acids, and 1% penicillin-streptomycin. The Caco-2 cells were seeded onto polyester filter membranes in a 12-well Transwell® plate (Corning Costar Co., NY, United States) with 0.6 × 10^5 cells/cm^2. The monolayer cells were used for transport assays between 21 and 23 days. The MDCKII cells were seeded on transwell plates with a density of 2.0 × 10^5 cells/cm^2 and grown for 4-5 days to form a confluent monolayer. Bidirectional transport assays for Caco-2 and MDCK II cells were performed by adding silybin (10 μM) in assay buffer into either the apical (AP; A-to-B) or basolateral (BL; […] For inhibition studies, Caco-2 or MDCK II cell monolayers in both apical and basolateral chambers were preincubated with the inhibitor for 30 min. The fluorescence intensity of the sample collected from the AP or BL side was immediately detected in a 96-well black plate by the Microplate UV/VIS spectrophotometer (TECAN Infinite […], Männedorf, Switzerland). For liquid chromatography tandem-mass spectrometry (LC-MS/MS) analysis, the sample (100 μl) was mixed with methanol (50 μl) containing internal standard (25 ng/ml) and was stored at -80°C. The formula for calculating apparent permeability coefficient (Papp) values is as follows: (1) […] where dQ/dt (mM/s) represents the rate of permeation of the drug across the cells, C0 (mM) refers to the concentration in the donor compartment at time zero calculated from dosing solution, and A (cm^2) refers to the area of the cell monolayer. Papp (B-A) is the Papp value measured in the B to A direction, and Papp (A-B) is the Papp value measured in the A to B direction. The efflux ratio is given as ER = Papp (B to A)/Papp (A to B).
# [5] = 100 mg/kg p.o. 7 days, single agent, CCl4 on day 7
# [6] = silybin 100 mg/kg for 7 consecutive days, P < 0.01
smiles,measurement,setting,value
"COc1cc(C2Oc3cc([C@H]4Oc5cc(O)cc(O)c5C(=O)[C@@H]4O)ccc3OC2CO)ccc1O (some centres unmarked) [silybin, Silybin]",side effects,[1],no significant side effects
same,"Haemorrhage (histologic score, liver H&E)",[2]; [5],2.2±0.8
same,"Inflammation (histologic score, liver H&E)",[2]; [5],2.0±0.6
same,"Nerosis (histologic score, liver H&E)",[2]; [5],2.7±0.5
same,"Steatosis (histologic score, liver H&E)",[2]; [5],2.2±0.8
same,CCl4-induced increase of liver weight and ratio of liver to body weight,"[2]; p.o. 7 days before CCl4, p < 0.01",abrogated
same,"CCl4-induced increase in serum IL-1β, IL-6, and TNF-α levels",[2]; [6],significantly prevented
same,"CCl4-induced increase in the serum activities of ALT, AST, and AKP",[2]; [6],significantly prevented
same,glucuronide conjugated silybin,[3],55%
same,sulfate conjugated silybin,[3],28%
same,efflux ratio at 180 min,[4],~2
